pEC50: −log10 of the molar value.
Tests used:
[1] = target: Human CB1R (Cannabanoid receptor 1) (Homo sapiens (Human), UniProt P21554); assay: CB-1 in vitro cAMP (HTRF) assay in HEK-293 cells; type: cell-based; settings: HEK-293 cells stably transfected with human CB1R, 250 nM Forskolin, mean where tested more than once, read-out: CB-1 (HEK_cAMP) EC50
Text: (§1) CB1 and CB2 receptors are Gi-coupled GPCR. Activation of CB1 and CB2 receptors results in a decrease in cAMP production. An inverse agonist of the CB1 or CB2 receptor results in the opposite effect, an increase of cAMP production. The principle of this assay is based on HTRF® technology (Homogeneous Time-Resolved Fluorescence). The method is a competitive immunoassay between native cAMP produced by cells and the cAMP labeled with the fluorophore d2. The tracer binding is quantified by a Mab anti-cAMP labeled with Eu3+TBP-NHS Cryptate (supplied as part of the assay kit). The specific signal (i.e. energy transfer) is inversely proportional to the concentration of cAMP in the standard or sample.
(§2) Human CB1R (Cannabanoid receptor 1) was stably transfected in HEK-293 cells (DiscoveRx, cat: 93-0200C1). Human CB2R (Cannabanoid receptor 2) was stably transfected in HEK-293 cells (DiscoveRx, cat: 93-0201C1). Cell cultures were maintained in media: DMEM (Invitrogen Cat#12430-054) supplemented with 10% HI FBS (Invitrogen Cat#16140-071), 1% L-glutamine (Invitrogen Cat#25030-081), 0.2 mg/ml Hygromycin B (Invitrogen Cat#10687-010), 600 μg/mL G418 (Invitrogen Cat#10131-035), and 1× Penn/Strep (Invitrogen 15140-122). After cell expansion, aliquots were cryo-stored in media containing 5% DMSO (Pierce Cat#20684).
(§3) One day prior to experiments media was warmed to 37° C. and the cryo-stored cells were thawed in a 37° C. water bath. The cells were then added to media (10× volume) and the mixture was centrifugated at 1000 RPM for 5 min. The supernate was removed and the cells were re-suspended in media. A sample of the cell suspension was evaluated on a Cedex XS automated cell counter (Innovatis Systems) to determine viable cells/ml. Additional media was added to the cells to achieve a final cell density of 4E5 cells/mL. The cells were then plated into 384 well PDL white solid bottom plates (Greiner, Cat#781945) at 20 μL per well using a Multidrop (Thermo Scientific). Cells were removed from Row P (location of cAMP standards). Two columns of cells were plated into a clear bottom 384 well PDL coated plate (Greiner, Cat#781944) to view confluence the day of the assay. The cell plates were lidded and stored for 15 minutes in a hood, then transferred to an incubator (37° C., 5% CO2, 95% humidity) overnight.
(§4) DMSO was added to all wells of 384 well V bottom polystyrene plate (Greiner, Cat#781280) except to columns 1 and 13, rows O and P and wells M13-M23 and N13-N23. Test compounds (60 μL, 10 mM) were added to Column 1 and 13 (A1 through N1 and A13 through L13). Test compounds were serially diluted 1/3 by transferring and mixing 20 μl sample with 40 μL DMSO.
(§5) DMSO (40 μL) was added to wells of 384 well V bottom polystyrene plate: O2 through O11, M14 through M23, N14 through N23, and O14 through 023. AM630 (also known as [6-iodo-2-methyl-1-[2-(4-morpholinyl)ethyl]-1H-indol-3-yl](4-methoxyphenyl)-methanone, Cayman Chemical, Cat#10006974) (60 μL, 10 mM) was added to 01; and 1-(2,4-dichlorophenyl)-7-[(4-fluorophenyl)methylene]-4,5,6,7-tetrahydro-N-1-piperidinyl-1H-indazole-3-carboxamide (60 μL, 10 mM) was added to N13. The control was serially diluted 1/3 by transferring and mixing 20 μl sample with 40 μL DMSO. This process resulted 11 doses per control, 10 mM to […].
(§6) Cells plated the day prior to the assay in clear bottom plates were viewed on an inverse microscope to ensure confluency in the range of 60-75%. […]

[2] = target: Human CB2R (Cannabanoid receptor 2) (Homo sapiens (Human), UniProt P34972); assay: CB-2 in vitro cAMP (HTRF) assay in HEK-293 cells; type: cell-based; settings: HEK-293 cells stably transfected with human CB2R, 250 nM Forskolin, mean where tested more than once, read-out: CB-2 (HEK_cAMP) EC50
Chain of Human CB2R (Cannabanoid receptor 2) (P34972 whole entry): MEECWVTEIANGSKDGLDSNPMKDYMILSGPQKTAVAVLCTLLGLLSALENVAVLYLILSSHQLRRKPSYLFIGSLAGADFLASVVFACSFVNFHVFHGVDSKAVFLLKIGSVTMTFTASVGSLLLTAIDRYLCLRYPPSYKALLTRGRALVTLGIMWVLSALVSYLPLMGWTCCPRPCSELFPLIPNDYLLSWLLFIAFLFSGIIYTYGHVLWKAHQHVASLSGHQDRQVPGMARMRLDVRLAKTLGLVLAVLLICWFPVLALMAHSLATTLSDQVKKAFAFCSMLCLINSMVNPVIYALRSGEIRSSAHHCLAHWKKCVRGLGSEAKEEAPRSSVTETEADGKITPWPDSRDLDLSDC
Text: as §1, §2, §3, §4, §5, §6

Chain of Human CB1R (Cannabanoid receptor 1) (P21554 whole entry): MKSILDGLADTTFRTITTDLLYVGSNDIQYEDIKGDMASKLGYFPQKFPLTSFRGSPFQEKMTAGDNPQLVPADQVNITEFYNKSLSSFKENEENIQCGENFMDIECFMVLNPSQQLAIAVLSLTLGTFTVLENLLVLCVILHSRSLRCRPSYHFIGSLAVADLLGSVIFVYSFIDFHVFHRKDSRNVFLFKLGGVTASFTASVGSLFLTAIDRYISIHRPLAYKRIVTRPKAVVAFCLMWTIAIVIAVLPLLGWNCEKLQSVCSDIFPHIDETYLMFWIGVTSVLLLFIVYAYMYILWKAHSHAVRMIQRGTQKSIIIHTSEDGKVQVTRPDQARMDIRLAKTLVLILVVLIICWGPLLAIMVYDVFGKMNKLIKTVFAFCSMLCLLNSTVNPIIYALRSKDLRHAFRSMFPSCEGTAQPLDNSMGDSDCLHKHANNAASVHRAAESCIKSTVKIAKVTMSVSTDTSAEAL

| SMILES | pEC50 [1] | pEC50 [2] |
| --- | --- | --- |
| COC(=O)Cn1nc(N2CCN(S(=O)(=O)C(F)(F)F)CC2)c2cc(C(c3ccc(Cl)cc3)c3ccc(Cl)cc3)ccc21 [Compound 20] | 6.78 | < 5.00 |
| CCOC(=O)CS(=O)(=O)N1CCC(c2n[nH]c3ccc(C(c4ccc(Cl)cc4)c4ccc(Cl)cc4)cc23)CC1 [Compound 21] | 6.77 | < 5.00 |
| NS(=O)(=O)N1CCC(c2n[nH]c3ccc(C(c4ccc(Cl)cc4)c4ccc(Cl)cc4)cc23)CC1 [Compound 23] | 5.67 | < 5.00 |
| COC(=O)c1ccc(S(=O)(=O)N2CCC(c3n[nH]c4ccc(C(c5ccc(Cl)cc5)c5ccc(Cl)cc5)cc34)CC2)cc1 [Compound 24] | 6.82 | < 5.00 |
| O=C(O)c1ccc(S(=O)(=O)N2CCC(c3n[nH]c4ccc(C(c5ccc(Cl)cc5)c5ccc(Cl)cc5)cc34)CC2)cc1 [Compound 27] | 6.39 | < 5.00 |
| NC(=O)c1ccc(S(=O)(=O)N2CCC(c3n[nH]c4ccc(C(c5ccc(Cl)cc5)c5ccc(Cl)cc5)cc34)CC2)cc1 [Compound 28] | 6.87 | < 5.00 |
| O=S(=O)(N1CCN(c2nn(S(=O)(=O)C(F)(F)F)c3ccc(C(c4ccc(Cl)cc4)c4ccc(Cl)cc4)cc23)CC1)C(F)(F)F [Compound 29] | 5.83 | < 5.00 |
| O=S(=O)(c1ccccc1C(F)(F)F)N1CCC(c2n[nH]c3ccc(C(c4ccc(Cl)cc4)c4ccc(Cl)cc4)cc23)CC1 [Compound 33] | 7.31 | < 5.00 |
| NC(=O)c1ccccc1S(=O)(=O)N1CCC(c2n[nH]c3ccc(C(c4ccc(Cl)cc4)c4ccc(Cl)cc4)cc23)CC1 [Compound 40] | 6.53 | 4.99 |
| O=S(=O)(N1CCN(c2nn(CCO)c3ccc(C(c4ccc(Cl)cc4)c4ccc(Cl)cc4)cc23)CC1)C(F)(F)F [Compound 42] | 8.22 | < 5.00 |
| NC(=O)CCC(=O)N1CCC(c2n[nH]c3ccc(C(c4ccc(Cl)cc4)c4ccc(Cl)cc4)cc23)CC1 [Compound 43] | 6.77 | < 5.00 |
| O=C(O)c1ccccc1Cn1nc(N2CCN(S(=O)(=O)C(F)(F)F)CC2)c2cc(C(c3ccc(Cl)cc3)c3ccc(Cl)cc3)ccc21 [Compound 45] | 6.03 | < 5.00 |
| O=S(=O)(N1CCC(c2nn(-c3cccc(Cl)c3)c3ccc(C(c4ccc(Cl)cc4)c4ccc(Cl)cc4)cc23)CC1)C(F)(F)F [Compound 47] | 7.39 | < 5.00 |
| O=S(=O)(C1CC1)N1CCC(c2n[nH]c3ccc(C(c4ccc(Cl)cc4)c4ccc(Cl)cc4)cc23)CC1 [Compound 54] | 7.57 | < 5.00 |
| NC(=O)c1ccccc1Cn1nc(N2CCN(S(=O)(=O)C(F)(F)F)CC2)c2cc(C(c3ccc(Cl)cc3)c3ccc(Cl)cc3)ccc21 [Compound 55] | 6.19 | < 5.00 |
| O=C(CC(F)(F)F)N1CCC(c2n[nH]c3ccc(C(c4ccc(Cl)cc4)c4ccc(Cl)cc4)cc23)CC1 [Compound 56] | 7.14 | < 5.00 |
| O=S(=O)(N1CCC(c2nn(-c3cccc(C(F)(F)F)c3)c3ccc(C(c4ccc(Cl)cc4)c4ccc(Cl)cc4)cc23)CC1)C(F)(F)F [Compound 57] | 6.32 | < 5.00 |
| COC(=O)c1cccc(S(=O)(=O)N2CCC(c3n[nH]c4ccc(C(c5ccc(Cl)cc5)c5ccc(Cl)cc5)cc34)CC2)c1 [Compound 60] | 7.19 | < 5.00 |

Further molecules by rising pEC50 [1], results first:

| pEC50 [1] | pEC50 [2] | SMILES |
| --- | --- | --- |
| 5.22 | 5.12 | O=C(O)c1ccccc1S(=O)(=O)N1CCC(c2n[nH]c3ccc(C(c4ccc(Cl)cc4)c4ccc(Cl)cc4)cc23)CC1 [Compound 34] |
| 5.78 | < 5.00 | O=C(O)CC(=O)N1CCC(c2n[nH]c3ccc(C(c4ccc(Cl)cc4)c4ccc(Cl)cc4)cc23)CC1 [Compound 41] |
| 5.91 | < 5.00 | NC(=O)CS(=O)(=O)N1CCC(c2n[nH]c3ccc(C(c4ccc(Cl)cc4)c4ccc(Cl)cc4)cc23)CC1 [Compound 25] |
| 6.30 | < 5.00 | O=C(O)COCCn1nc(N2CCN(S(=O)(=O)C(F)(F)F)CC2)c2cc(C(c3ccc(Cl)cc3)c3ccc(Cl)cc3)ccc21 [Compound 52] |
| 6.43 | < 5.00 | O=S(=O)(c1cccc(C(F)(F)F)c1)N1CCC(c2n[nH]c3ccc(C(c4ccc(Cl)cc4)c4ccc(Cl)cc4)cc23)CC1 [Compound 59] |
| 6.60 | < 5.00 | O=C(O)CS(=O)(=O)N1CCC(c2n[nH]c3ccc(C(c4ccc(Cl)cc4)c4ccc(Cl)cc4)cc23)CC1 [Compound 22] |
| 6.72 | < 5.00 | O=C(O)c1cccc(S(=O)(=O)N2CCC(c3n[nH]c4ccc(C(c5ccc(Cl)cc5)c5ccc(Cl)cc5)cc34)CC2)c1 [Compound 61] |
| 6.82 | < 5.00 | COC(=O)CC(=O)N1CCC(c2n[nH]c3ccc(C(c4ccc(Cl)cc4)c4ccc(Cl)cc4)cc23)CC1 [Compound 51] |
| 6.84 | < 5.00 | CC(C)(C)OC(=O)N1CCC(c2n[nH]c3ccc(C(c4ccc(Cl)cc4)c4ccc(Cl)cc4)cc23)CC1 [Compound 39] |
| 6.89 | 5.63 | COC(=O)c1ccccc1S(=O)(=O)N1CCC(c2n[nH]c3ccc(C(c4ccc(Cl)cc4)c4ccc(Cl)cc4)cc23)CC1 [Compound 31] |
| 7.08 | < 5.00 | NC(=O)Cn1nc(N2CCN(S(=O)(=O)C(F)(F)F)CC2)c2cc(C(c3ccc(Cl)cc3)c3ccc(Cl)cc3)ccc21 [Compound 19] |
| 7.15 | < 5.00 | O=S(=O)(c1ccc(C(F)(F)F)cc1)N1CCC(c2n[nH]c3ccc(C(c4ccc(Cl)cc4)c4ccc(Cl)cc4)cc23)CC1 [Compound 32] |
| 7.23 | < 5.00 | O=S(=O)(N1CCC(c2nn(-c3ccc(F)cc3)c3ccc(C(c4ccc(F)cc4)c4ccc(Cl)cc4)cc23)CC1)C(F)(F)F (stereo not drawn) [Compound 50] |
| 7.31 | < 5.00 | O=S(=O)(CC(F)(F)F)N1CCC(c2n[nH]c3ccc(C(c4ccc(Cl)cc4)c4ccc(Cl)cc4)cc23)CC1 [Compound 53] |
| 7.40 | < 5.00 | O=S(=O)(N1CCC(c2nn(-c3ccc(C(F)(F)F)cc3)c3ccc(C(c4ccc(Cl)cc4)c4ccc(Cl)cc4)cc23)CC1)C(F)(F)F [Compound 46] |
| 7.51 | < 5.00 | O=S(=O)(N1CCC(c2nn(-c3ccccc3Cl)c3ccc(C(c4ccc(Cl)cc4)c4ccc(Cl)cc4)cc23)CC1)C(F)(F)F [Compound 48] |
| 7.74 | < 5.00 | O=S(=O)(N1CCC(c2nn(-c3ccc(OC(F)(F)F)cc3)c3ccc(C(c4ccc(Cl)cc4)c4ccc(Cl)cc4)cc23)CC1)C(F)(F)F [Compound 49] |
| 7.85 | < 5.00 | CC(=O)n1nc(N2CCN(S(=O)(=O)C(F)(F)F)CC2)c2cc(C(c3ccc(Cl)cc3)c3ccc(Cl)cc3)ccc21 [Compound 44] |
| 7.89 | < 5.00 | O=S(=O)(N1CCC(c2nn(-c3ccc(Cl)c(Cl)c3)c3ccc(C(c4ccc(Cl)cc4)c4ccc(Cl)cc4)cc23)CC1)C(F)(F)F [Compound 58] |
| 8.10 | < 5.00 | O=S(=O)(N1CCC(c2nn(-c3nccs3)c3ccc(C(c4ccc(Cl)cc4)c4ccc(Cl)cc4)cc23)CC1)C(F)(F)F [Compound 37] |
| 8.30 | < 5.00 | O=S(=O)(N1CCN(c2n[nH]c3ccc(C(c4ccc(Cl)cc4)c4ccc(Cl)cc4)cc23)CC1)C(F)(F)F [Compound 26] |

Source: patent US9682940B2, “Indazole derivatives useful as CB-1 inverse agonists” (Janssen Pharmaceutica NV, priority 2015, dated 2017)
